{"source": "patent US20250231108A1", "about": "“TR[…]” (SUMITOMO CHEMICAL COMPANY, LIMITED, priority 2022, published 2025)", "tested_on": "TA1537", "test": "Ames test (Ames MPF microplate format) without metabolic activation, toxicity to tester assessed by transparency index T from plate image", "conditions": "for transparency index T: TA1537, no metabolic activation, average of three assessment plates, FIG. 14, T smaller than 1 means high transparency (cells dead)", "description": "A tester (bacterium having amino acid-requiring mutation, for example, Salmonella typhimurium: a TA100 strain, a TA98 strain, a TA1535 strain, or a TA1537 strain, Escherichia coli: a WP2uvrA strain or the like) that is used is inoculated in 60 mL of Nutrient broth medium, and is shaken and cultured at 37° C. for 9 to 10 hours to be proliferated.\nThe test substance prepared in the step 2A is dissolved or suspended in an adequate medium, and the resultant solution is diluted by using the medium in staged to prepare concentration series of the test substance solution. In a case where the same test substance is assessed with six concentrations different from each other, six test substance solutions having concentrations different from each other are prepared.\nThe medium used in preparation of the test substance solution, the concentration series of the test substance solution, and the solution of the positive control compound (collectively referred to as “test substance solution or the like”) are put into individual wells of a 24-well plate (a plate having 24 wells) by 10 μL.\n0.175 to 0.7 mL of the tester culture solution (typically at a concentration exceeding 1×10^9 cells/mL) and 6.83 to 6.3 mL of a medium (minimal medium in which a carbon source is added and which is deficient in amino acid) are mixed. The resultant mixture is referred to as a preparation bacterial solution under conditions of the absence of metabolic activation. […]\nSpecifically, first, an angle θ1 between the centroid vector V1 and the first reference vector V2 and an angle θ2 between the centroid vector V1 and the second reference vector V3 are compared. In a case where the angle θ1 is equal to or smaller than the angle θ2, a transparency index T is calculated based on an expression (1). In a case where the angle θ2 is larger than the angle θ1, the transparency index T is calculated based on an expression (2). […]", "data": [{"compound": "ClCc1ccc(Cl)cc1", "note": "[4-chlorobenzyl chloride]", "values": [{"measurement": "toxicity to the tester (cells)", "setting": "TA1537, 1.95-2,000 μg/mL in DMSO, no metabolic activation, conclusion from transparency index T", "result": "toxic to the tester"}, {"measurement": "transparency index T", "setting": "section Se6, test substance 500 μg/mL", "result": "reduced"}, {"measurement": "transparency index T", "setting": "section Se7, test substance 2,000 μg/mL", "result": "reduced"}]}]}
